Laboratory results as given in a compilation of properties of binary mixtures (doi:10.1021/je901058s).

Experiment: xn = mol fraction of the nth substance listed
Conditions: 101 kPa

CCCCCCCCn1cc[n+](C)c1.O=[N+]([O-])[O-] + CCCCO
viscosity [mPa·s]
Conditions	283.15 K	288.15 K	293.15 K	298.15 K	303.15 K	308.15 K	313.15 K	318.15 K	323.15 K	328.15 K
x2 = 0.168	–	530	380	277	207	158	–	97.4	73.2	48.9
x2 = 0.261	440	311	229	172	132	103	78.5	63.4	51.6	35.5
x2 = 0.358	241	179	–	105	80.6	–	–	–	35.7	25.5
x2 = 0.458	126	98.8	74.2	–	–	39.3	32.6	27.3	–	–
x2 = 0.57	59.4	47.4	–	–	26.4	22.29	18.98	16.3	–	10.88
x2 = 0.676	29.9	24.7	–	17.43	–	–	11.15	9.75	–	6.84
x2 = 0.754	18.67	15.69	13.36	11.44	9.92	8.74	7.63	6.76	5.98	4.76
x2 = 0.848	10.45	9.03	–	–	5.92	5.15	4.56	4.03	–	2.93

CCCCCCCCn1cc[n+](C)c1.O=[N+]([O-])[O-] + CCO
viscosity [mPa·s]
Conditions	283.15 K	288.15 K	293.15 K	298.15 K	303.15 K	308.15 K	313.15 K	318.15 K	323.15 K	328.15 K
x2 = 0.128	970	660	460	333	246	185	143	–	81.4	–
x2 = 0.266	380	266	198	150	116	89.1	68.9	55.9	45.9	32
x2 = 0.357	216	–	124	97	73.4	58.4	48.3	–	33.3	–
x2 = 0.455	102	76.2	–	47.5	38.3	31.2	25.8	–	18.59	14.08
x2 = 0.554	–	38.6	31.5	26.1	–	18.4	15.71	13.53	11.78	–
x2 = 0.662	24.8	20.62	17.19	14.52	12.44	10.83	9.55	8.69	7.83	6.2
x2 = 0.767	11.64	9.86	–	–	–	5.72	–	4.46	3.99	3.27
x2 = 0.868	5.09	–	3.97	3.49	3.13	2.8	2.53	2.3	2.1	1.77

CCCCCCCCn1cc[n+](C)c1.O=[N+]([O-])[O-] + CCCO
viscosity [mPa·s]
Conditions	283.15 K	288.15 K	293.15 K	298.15 K	303.15 K	308.15 K	313.15 K	318.15 K	323.15 K	328.15 K
x2 = 0.107	1091	730	510	365	267	201	153	120	95.4	–
x2 = 0.258	490	–	258	191	–	113	86.9	–	53.4	36.5
x2 = 0.364	218	164	127	99.7	–	63	51.1	42.1	35	25
x2 = 0.47	114	85.8	–	60	48.5	39.7	–	27.6	23.44	17.34
x2 = 0.556	65.4	–	–	34.4	28.6	–	20.38	17.44	15.08	–
x2 = 0.671	28.8	23.8	–	16.84	14.41	12.45	–	–	8.41	6.55
x2 = 0.756	16.16	13.66	11.67	10.07	8.77	7.63	6.75	5.93	5.21	4.2
x2 = 0.866	7.84	6.8	5.85	–	4.48	3.94	3.52	3.14	2.82	2.31
